Laboratory results published in US20040197411A1, “Acceptably non-hygroscopic formulation intermediate comprising a hygroscopic drug” (priority 2002, published 2004).

Assay: Moisture sorption analysis by dynamic vapor sorption (DVS)
Type: physicochemical
Details: for hygroscopicity and deliquescence: general statement, conditions not given
Protocol: Compound 1 was prepared according to processes described in WO 01/72703. A sample of Compound 1 in substantially dry, amorphous form was subjected to moisture sorption analysis. Dynamic vapor sorption (DVS) was used to determine mass increase (relative to dry mass) was monitored over an adsorption range of 10-70% relative humidity (RH) in increments of 10%. As shown by the moisture sorption isotherm represented in FIG. 1, Compound 1 is hygroscopic.

hygroscopicity and deliquescence | moisture sorption isotherm (mass increase relative to dry mass) (substantially dry, amorphous form, 10-70% RH in increments of 10%, FIG. 1) | Compound
extremely hygroscopic and deliquescent | hygroscopic | CC(=N)NCCSC[C@](C)(N)C(=O)O.Cl.Cl [Compound 1, S-[2-[(1-iminoethyl)amino]ethyl]-2-methyl-L-cysteine dihydrochloride]
extremely hygroscopic and deliquescent | – | CC(=N)NCCSC[C@](C)(N)C(=O)O [S-[2-[(1-iminoethyl)amino]ethyl]-2-methyl-L-cysteine]
